Data set [1] can be described thus: Lipophilicity, log D of the compound at pH 7.4. Type of data set: physicochemical. The note with it: buffer.
Data set [2] is described as follows: Drug uptake in iv dosed baboon kidney after 90 mins by PET analysis in presence of SAHA. The note with it: papio anubis, in vivo. Type of data set: ADME, organism-based.
A short description of data set [3]: Drug uptake in iv dosed baboon heart after 90 mins by PET analysis in presence of SAHA. Type of data set: ADME, organism-based. The note with it: papio anubis, in vivo.
Data set [4] can be described thus: Drug uptake in iv dosed baboon liver after 90 mins by PET analysis in presence of SAHA. The note with it: papio anubis, in vivo. Type of data set: ADME, organism-based.
Data set [5] is described as follows: Drug uptake in iv dosed baboon kidney after 90 mins by PET analysis. Type of data set: ADME, organism-based. The note with it: papio anubis, in vivo.
The nature of data set [6]: Drug uptake in iv dosed baboon heart after 90 mins by PET analysis. The note with it: papio anubis, in vivo. Type of data set: ADME, organism-based.
Data set [7] can be described thus: Drug uptake in iv dosed baboon liver after 90 mins by PET analysis. The note with it: papio anubis, in vivo. Type of data set: ADME, organism-based.
Data set [8] is described as follows: Drug uptake in iv dosed baboon caudate after 90 mins by PET analysis. Type of data set: ADME, organism-based. Particulars: papio anubis, in vivo; call rule not given here.
A short description of data set [9]: Drug uptake in iv dosed baboon putamen after 90 mins by PET analysis. Type of data set: ADME, organism-based. Particulars: papio anubis, in vivo.
A short description of data set [10]: Drug uptake in iv dosed baboon cerebellum after 90 mins by PET analysis. Type of data set: ADME, organism-based. The note with it: papio anubis, in vivo.
In data set [11] the test system is Brain. The data set can be described thus: Drug uptake in iv dosed baboon whole brain after 90 mins by PET analysis. Type of data set: ADME, organism-based. The note with it: papio anubis, in vivo.
Data set [12] is described as follows: Protein binding in plasma (unknown origin). The note with it: unidentified, read-out: PPB (converted). Type of data set: ADME, cell-free.
For data set [13], the system named is Brain. Put plainly: Drug uptake in iv dosed baboon brain after 90 mins by PET analysis. The note with it: papio anubis, in vivo. Type of data set: ADME, organism-based.

The logD is the decadic logarithm of the distribution of all forms, ionised or not, between an organic phase and buffer at a given pH. On to `Nc1ccccc1NC(=O)c1ccc(CN[11C](=O)OCc2cccnc2)cc1`, for which the log distribution coefficient (logD) in data set [1] (read-out: logD) is 1.79.
Consider `O=C(C[18F])NCCCCCC(=O)Nc1ccccc1`, for which the pH-dependent lipophilicity (logD) in data set [1] is 1.39.
Regarding `[11CH3]Oc1ccc(C(=O)CCCCCCC(=O)NO)cc1`, the Drug uptake entry in data set [2], in data set [3], in data set [4], in data set [5], in [6] and in data set [7] was “Active” each time. Besides, the Drug uptake entry in data set [8], in data set [9], in [10], in data set [11] and in data set [13] was “Active” throughout. For the same compound, the log distribution coefficient (logD) in [1] (read-out: logD) was 0.5. The fraction unbound in data set [12] was 0.085.
